In PMC8315922, “In Vitro Identification and In Vivo Confirmation of Inhibitors for Sweet Potato Chlorotic Stunt Virus RNA Silencing Suppressor, a Viral RNase III” (Journal of Virology, 2021):

What was measured:
[1] = target: CSR3 (RNase III of SPCSV) (Sweet potato chlorotic stunt virus, UniProt Q8JJW8); assay: Kinetic-based HTS (FRET, labeled 22-bp siRNA cleavage), one concentration; format: biochemical; conditions: compound 10 μM, 375 nM siRNA, 37°C
Description: Based on the catalytic activity of CSR3 on 22-bp siRNA, our kinetic-based HTS assay was designed using distance-dependent FRET technology. Specifically, one strand of siRNA, as a substrate, was labeled with a fluorescent dye (6-carboxyfluorescein [FAM]) at the 5′ end and a quencher (black hole quencher 1 [BHQ1]) at the 3′ end. The initial reaction rate of CSR3 was quantified using the slope of raw fluorescence under an excitation/emission spectrum at 485/520 nm (Fig. 3A). […] In this study, a total of 6,622 compounds (including 6,400 selected from Glide docking and 222 empirically selected compounds for preliminary assay setup) were screened using kinetic-based HTS at a final concentration of 10 μM. All 384-well screening plates contained 32 negative (with CSR3 [i.e., the substrate was successfully cleaved]) and 32 positive (without CSR3 [i.e., the substrate remained intact]) control reaction mixtures. To evaluate the quality of the HTS assay, the Z-factor (Z′) parameter was calculated using the reaction rates of the positive and negative controls ([30]). […]
The HTS assay was designed based on FRET using a 22-bp siRNA (forward sequence, […]; reverse sequence, […]) with a 2-nucleotide (nt) 3′ overhang labeled with the fluorescent dye 6-carboxyfluorescein (FAM) and a black hole quencher (BHQ1) on the sense strand (Metabion, Munich, Germany). […] The plates were read with a PHERAstar FS reader (BMG Labtech, Ortenberg, Germany).
(§1) For HTS, the activity of CSR3 was calculated by measuring the change in fluorescence as a function of the reaction time using MARS Data Analysis software (BMG Labtech). To evaluate the CSR3 inhibition efficiency of individual compounds, the PI of each compound was calculated using the slope values for the sample, positive control, and negative control according to the following equation: PI = 100 × [1 − (sample − positive)/(negative − positive)]%. IC50 and DSS values were calculated using concentration-specific PI values according to a previous study ([31]). Relative gene expression was calculated using the classical 2^−ΔΔ^CT method ([63]).

CSR3 = target: T1, CSR3 (Sweet potato chlorotic stunt virus, UniProt Q8JJW8); assay: Binding affinity assay using SPR; conditions: for Kd: unit inferred, read-out: Steady State Affinity
T1 sequence (Q8JJW8 1-228): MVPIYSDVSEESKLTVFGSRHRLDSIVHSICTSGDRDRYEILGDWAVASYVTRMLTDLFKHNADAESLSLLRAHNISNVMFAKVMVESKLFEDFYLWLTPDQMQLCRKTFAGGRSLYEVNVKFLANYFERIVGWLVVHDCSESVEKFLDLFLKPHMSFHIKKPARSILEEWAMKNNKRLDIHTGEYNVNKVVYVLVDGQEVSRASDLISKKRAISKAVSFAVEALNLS
Description: Binding affinity assays were first carried out with the 99 commercial compounds using the MST method.
CSR3 was purified as described above and stored in PBS buffer. SPR was performed on a BiacoreT100 instrument (GE Healthcare) using a sensor S CM5 chip (GE Healthcare). CSR3 (10 ng/μl) was immobilized using the standard amine-coupling method according to the manufacturer’s instructions with immobilization buffer (10 mM sodium acetate [pH 4]); the final response unit (RU) value was 11,459. Compounds at a single concentration (100 μM) or consisting of 2-fold serial dilutions (3 μM to 200 μM) were flowed over the sensor surface using PBS buffer with 0.01 M HEPES, 0.05% surfactant P20, and 2% DMSO. […] To eliminate bulk interference by DMSO, a solvent correction consisting of DMSO at concentrations ranging from 1.5% to 2.8% was carried out for every 30 samples. Steady-state affinity (KD) values were determined using BiacoreT100 Evaluation software, v.2.04 (GE Healthcare).

SPCSV = conditions: plants in soil, 10 μM foliar spray twice a week for 1 month, vs water-treated
Description: (§2) Compounds were administered by regular foliar spray over 1 month.
(§3) Sweetpotato plants cultivar 'Huachano' (accession CIP420065) were side-graft inoculated with both SPFMV (East African strain isolate Nam1) and SPCSV-Ug (East African serotype 2) as described previously ([62]). Plantlets were propagated by taking single-node stems grown in a plant culture medium ([33]). Next, plantlets with newly formed roots were transferred to glass tubes (18 by 150 mm) containing 10 ml of medium supplemented with either 50 μM compound (diluted in DMSO; final DMSO concentration, 0.1%) or only 0.1% DMSO as a control. For plant experiments in soil, plantlets were transferred to pots (6 by 6 by 10 cm) filled with a mixture of sand, humus, and washed soil. After 1 week, plants were treated by foliar spraying using either individual compounds at a single concentration (10 μM) (treatment) or water (control/mock) twice a week for 1 month. All plants were grown at 22°C with 60% humidity and a 16-h light/8-h dark photoperiod for 28 days in culture medium and for 41 days in soil. The Finnish National Plant Phenotyping Infrastructure (NaPPI) was used to monitor plant viral disease symptoms as described in our previous study ([33]). Four compounds were tested with the phenotyping platform in two independent batches, each of which included five biological replicates.
(§4) Leaf samples were collected from plants grown in culture medium or soil for 28 or 41 days, respectively, and frozen in liquid nitrogen. Total RNA was extracted using the Spectrum plant total RNA kit (Sigma-Aldrich). First-strand cDNA was synthesized using the Transcriptor first-strand cDNA synthesis kit (Roche, Basel, Switzerland). Gene expression was measured in a final volume of 10 μl (containing 2 μl 10-fold-diluted cDNA, 5 μl SYBR green I master mix [Roche], and 2.5 μM primers) using the LightCycler 480 instrument II (Roche). All RT-qPCR experiments were conducted in triplicate on three and five biological replicates from plants grown in culture medium and soil, respectively. The primer list can be found in our previous study ([33]).
as §1

SPFMV = conditions: plants in soil, 10 μM foliar spray twice a week for 1 month, vs water-treated
Description: as §2, §3, §4, §1

[2] = system: human enzymes or bacterial proteins; parameters: method as in earlier work; conditions: ref PubChem https://pubchem.ncbi.nlm.nih.gov/compound/7114450#section=Biological-Test-Results; cited from earlier work
[3] = SPR dose-response 3 μM to 200 μM, 25°C, numbers match M (cf. Fig 5A)

SMILES | PI values (percentage of inhibition) [1] [%] | Kd (CSR3; [3]) [nM] | KD (SPR) (CSR3; steady-state affinity, Fig 5A) | log2 fold change in coat protein expression of SPCSV (SPCSV) | log2 fold change in coat protein expression of SPFMV (SPFMV) | activity in inhibitor screens for human enzymes or bacterial proteins [2] | Steady State Affinity (CSR3; SPR dose-response 3 μM to 200 μM, 25°C, unit not given, numbers match M (cf. Fig 5A))
O=C1c2c(O)ccc(O)c2C(=O)c2c(NCCNCCO)ccc(NCCNCCO)c21 [FIMM000490] | 102.062 | 137 |  |  |  |  | 
O=C(O)c1ccc(C2Nc3c(Br)cccc3C3C=CCC32)cc1 (stereo not drawn) [FIMM022230] |  |  | millimolar range | −0.58 | −0.73 | inactive | 
Cc1ccc(C2Nc3ccc(C(=O)O)cc3C3C=CCC32)cc1 (stereo not drawn) [FIMM031755] |  | 3760 |  | −1.30 | −1.33 | affected the activity of chain B of the human cytokine/receptor binary complex | 
COc1cc(C=C2C(=O)NC(=S)NC2=O)ccc1OCc1ccccc1[N+](=O)[O-] [FIMM101864] | 98.4382 |  |  |  |  |  | non binder
